Assay: Fluorometric competition titration with EGTA, Zn(II) complex stability constant
Assay type: binding
Method: FIG. 6A illustrates the fluorometric determination of the Zn(II) complex stability constant of probe 8 via competition titration with EGTA. (A) of FIG. 6A illustrates an exemplary Formula I, Formula II, and/or a derivative thereof (e.g., for example probe 8) (10 μM) that was equilibrated with molar equivalent of Zn(OTf)2 in chelexed PIPES buffer (pH 7.0, 10 mM PIPES, 0.1 M KCl, 25° C.) containing 100 μM 4:1 DMPC:DMPG liposomes and titrated with EGTA to a final concentration of 50 μM. The fluorescence spectra (excitation at 405 nm) were analyzed by non-linear least squares fitting. (B) FIG. 6A illustrates an exemplary change in fluorescence response at 515 nm with the corresponding fit using the equilibrium system model as defined in the table of FIG. 6B.
The binding affinity of Formula I, Formula II, and/or a derivative thereof (e.g., for example probe 8) was analyzed in PIPES buffer containing 100 μM of 4:1 DMPC:DMPG liposomes (pH 7.0, 10 mM PIPES, 0.1 M KCl, 25° C.). […] The binding affinity is over 400-fold weaker than chromis-1 acid, and approximately 10-fold lower than chromis-1 ester. The discrepancy in binding affinities is likely due to a combination of two factors. […]
A solution of Formula I, Formula II, and/or a derivative thereof (e.g., for example probe 8) was diluted from a 3.0 mM DMSO stock solution to a final concentration of 10 μM in Chelex®-treated PIPES buffer (10 mM, 0.1 M KCl, pH 7.0) containing 10 μM of Zn(OTf)2 and 100 μM of liposomes (4:1 mixture of DMPC and DMPG). […] After the addition of each aliquot of EGTA, the solution was allowed to equilibrate for 1 minute, and a fluorescence spectrum (excitation at 405 nm, spectral window 415-665 nm) was acquired. The titration was conducted in triplicate, and the data were analyzed by nonlinear least-squares fitting over the entire spectral range using the SPECFIT software package.

binding affinity weaker than chromis-1 acid (Zn(II) affinity compared with chromis-1 acid): over 400 fold | binding affinity lower than chromis-1 ester (Zn(II) affinity compared with chromis-1 ester): approximately 10 fold | Kd (pH 7.0, ionic background 0.1 M KCl, 25° C., liposomes, read-out: apparent dissociation constant Kd for Zn(II)): 0.0185 µM
Structure (SMILES): COc1ccc2c(c1)C(C)(C)c1nc(-c3cccc(CN(Cc4ncccn4)Cc4ncccn4)n3)sc1-2 [probe 8]

From patent US20240410831A1, “Multi-Mode Zinc-Selective Emission-Ratiometric Fluorescent Probes for Biological Application” (Georgia Tech Research Corporation, priority 2023, published 2024)
